pEC50: −log10 of the molar value.

The target in one experiment is T1, hTLR8 (Homo sapiens, UniProt Q9NR97).
T1 construct: host or cells: HEK-Blue hTLR8 cells (HEK293-derived, own knowledge)
T1 sequence (Q9NR97 27-1041): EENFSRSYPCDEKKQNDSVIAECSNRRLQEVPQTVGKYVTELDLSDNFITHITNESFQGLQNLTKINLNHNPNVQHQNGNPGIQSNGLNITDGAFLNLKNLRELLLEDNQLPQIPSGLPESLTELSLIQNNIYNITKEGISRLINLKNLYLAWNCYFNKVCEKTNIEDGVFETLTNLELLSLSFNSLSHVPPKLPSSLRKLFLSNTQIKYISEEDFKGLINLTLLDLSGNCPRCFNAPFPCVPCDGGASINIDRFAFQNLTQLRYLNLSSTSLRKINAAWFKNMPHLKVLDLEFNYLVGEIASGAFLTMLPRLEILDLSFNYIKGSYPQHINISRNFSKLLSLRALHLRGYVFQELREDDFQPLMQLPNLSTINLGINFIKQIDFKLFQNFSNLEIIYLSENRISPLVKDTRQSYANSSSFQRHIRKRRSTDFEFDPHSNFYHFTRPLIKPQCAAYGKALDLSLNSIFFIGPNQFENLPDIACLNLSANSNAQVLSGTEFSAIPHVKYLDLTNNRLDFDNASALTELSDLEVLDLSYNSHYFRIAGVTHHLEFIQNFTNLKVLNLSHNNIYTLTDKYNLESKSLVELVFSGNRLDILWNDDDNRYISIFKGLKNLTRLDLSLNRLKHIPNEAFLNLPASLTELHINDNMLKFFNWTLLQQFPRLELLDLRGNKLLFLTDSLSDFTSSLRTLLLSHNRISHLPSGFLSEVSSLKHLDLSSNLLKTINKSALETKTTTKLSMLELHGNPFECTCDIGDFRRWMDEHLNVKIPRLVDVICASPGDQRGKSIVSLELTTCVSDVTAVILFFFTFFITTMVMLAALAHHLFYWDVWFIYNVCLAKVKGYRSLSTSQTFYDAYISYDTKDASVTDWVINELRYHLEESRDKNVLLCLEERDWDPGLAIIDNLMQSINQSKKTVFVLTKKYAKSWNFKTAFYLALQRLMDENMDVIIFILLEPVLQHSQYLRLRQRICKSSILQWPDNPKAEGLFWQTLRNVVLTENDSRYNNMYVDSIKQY
As to the kind of experiment: Human TLR8 Reporter Assay. The class given is cell-based. The following applies: HEK-Blue hTLR8 cells, 16 hours, normalized to tl8-506 (1 μM) and DMSO. The gist of the method: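 HEK-Blue hTLR8 cells (20,000/well) incubated 16 h at 37 °C with 10-point 3-fold compound dilutions in HEK-Blue Detection medium; reporter read as absorbance at 620 nm. Effects normalized between DMSO and tl8-506 (1 μM); EC50 from 4-parameter fit.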

In the next experiment the target is T2, hTLR7 (Homo sapiens, UniProt Q9NYK1).
T2 construct: host or cells: HEK-Blue hTLR7 cells (HEK293-derived, own knowledge)
T2 sequence (Q9NYK1 27-1049): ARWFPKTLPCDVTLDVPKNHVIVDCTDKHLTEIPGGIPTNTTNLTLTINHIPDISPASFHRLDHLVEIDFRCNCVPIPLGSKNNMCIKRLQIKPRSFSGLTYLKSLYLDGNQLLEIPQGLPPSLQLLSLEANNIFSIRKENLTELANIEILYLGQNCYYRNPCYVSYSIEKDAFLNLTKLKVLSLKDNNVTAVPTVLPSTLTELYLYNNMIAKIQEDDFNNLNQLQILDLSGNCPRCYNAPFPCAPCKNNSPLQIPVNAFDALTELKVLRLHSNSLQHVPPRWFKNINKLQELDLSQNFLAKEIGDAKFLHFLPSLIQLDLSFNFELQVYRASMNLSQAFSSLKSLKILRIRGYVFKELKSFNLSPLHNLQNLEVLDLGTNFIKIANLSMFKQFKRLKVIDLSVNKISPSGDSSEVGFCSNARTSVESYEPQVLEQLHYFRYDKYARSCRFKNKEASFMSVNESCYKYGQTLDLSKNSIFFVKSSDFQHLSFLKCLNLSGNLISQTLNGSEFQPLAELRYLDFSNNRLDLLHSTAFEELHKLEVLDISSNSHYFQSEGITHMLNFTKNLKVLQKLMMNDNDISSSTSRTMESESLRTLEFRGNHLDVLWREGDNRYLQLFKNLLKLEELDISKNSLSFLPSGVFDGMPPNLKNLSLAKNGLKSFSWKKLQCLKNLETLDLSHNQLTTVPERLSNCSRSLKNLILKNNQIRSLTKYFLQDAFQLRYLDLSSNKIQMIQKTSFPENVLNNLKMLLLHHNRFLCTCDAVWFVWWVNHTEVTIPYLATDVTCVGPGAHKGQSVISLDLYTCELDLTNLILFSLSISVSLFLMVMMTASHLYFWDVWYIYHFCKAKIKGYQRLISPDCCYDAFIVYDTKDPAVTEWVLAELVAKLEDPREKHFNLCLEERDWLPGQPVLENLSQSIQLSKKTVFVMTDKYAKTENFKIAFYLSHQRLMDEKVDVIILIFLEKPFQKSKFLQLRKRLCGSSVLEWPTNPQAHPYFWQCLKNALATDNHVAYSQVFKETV
Description: Human TLR7 Reporter Assay. The following applies: HEK-Blue hTLR7 cells, 16 hours, normalized to CL097 (6 μM) and DMSO. The class given is cell-based. The gist of the method: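 HEK-Blue hTLR7 reporter cells (20,000/well) incubated 16 h at 37 °C with 10-point 3-fold compound dilutions; SEAP read by absorbance at 620 nm. Effects normalized between CL097 (6 μM) and DMSO controls; EC50 from 4-parameter fit.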

For the molecule `CCC[C@@H](CO)Nc1nc(N)nc2cn(Cc3ccc(N4CCNCC4)cc3OC)nc12` [Compound 150], the pEC50 at hTLR8 and at hTLR7 was 5.79 throughout.
Take `CCCCNc1nc(N)nc2cn(Cc3cc(CN4CC(CN)C4)ccc3OC)nc12` [Compound 151]: the pEC50 at hTLR8 was 6.06; at hTLR7, 5.65.
Turning to `CCC[C@@H](CO)Nc1nc(N)nc2cn(Cc3c(OC)cc(CN)cc3OC)nc12` [Compound 152], the results for the pEC50 at hTLR8 and at hTLR7 were 6.91 and 6.73, respectively.
On the same counts, the results for `CCC[C@@H](CO)Nc1nc(N)nc2cn(Cc3ccc(N4CCN(C(=O)C5CCC(CN6C(=O)C=CC6=O)CC5)CC4)cc3OC)nc12` (stereo partly drawn) [Compound 153] are 5.50 and 5.97.
For `CCC[C@@H](CO)Nc1nc(N)nc2cn(Cc3c(OC)cc(CNC)cc3OC)nc12` [Compound 154] the same measures were 5.38 and 5.97.
On the same counts, the results for `CCC[C@@H](CO)Nc1nc(N)nc2cn(Cc3ccc(CNC)cc3OC)nc12` [Compound 155] are 5.19 and 5.61.
For the molecule `C=CCN(C)Cc1ccc(Cn2cc3nc(N)nc(N[C@H](CO)CCC)c3n2)c(OC)c1` [Compound 156], the negative logarithm of the EC50 (pEC50) is 6.82 on hTLR8 and 7.11 on hTLR7.
For the molecule `C=CCN(C)Cc1cnc(Cn2cc3nc(N)nc(NCCCC)c3n2)c(OC)c1` [Compound 157], the results for the pEC50 at hTLR8 and on hTLR7 were 6.43 and 7.25, respectively.
For `C=CCN(C)Cc1cc(OC)c(Cn2cc3nc(N)nc(NC(C)CCC)c3n2)c(OC)c1` (stereo not drawn) [Compound 158] the same measures were 6.75 and 7.66.
As for `CCCCNc1nc(N)nc2cn(Cc3nc(N4CCNCC4)ccc3OC)nc12` [Compound 159], the pEC50 on hTLR8 is 5.02; on hTLR7, 5.94.
For `CCCCNc1nc(N)nc2cn(Cc3nc(Br)oc3C)nc12` [Compound 160] the same measures were 5.08 and 6.43.
On to `C=CCN(C)Cc1cc(OC)c(Cn2cc3nc(N)nc(N[C@H](CO)CCC)c3n2)c(OC)c1` [Compound 161], for which the pEC50 is 7.04 at hTLR8 and 7.37 at hTLR7.
On the same counts, the results for `CCCCNc1nc(N)nc2cn(Cc3nc(NCCCN)ccc3OC)nc12` [Compound 162] are 6.00 and 6.80.
Turning to `CCCCNc1nc(N)nc2cn(Cc3ncc(CNC)cc3OC)nc12` [Compound 163], the figures for the negative logarithm of the EC50 (pEC50) at hTLR8 and on hTLR7 were 6.09 and 6.32, respectively.
For `CCCC(C)Nc1nc(N)nc2cn(Cc3c(OC)cc(CNC)cc3OC)nc12` (stereo not drawn) [Compound 164] the same measures were 6.77 and 6.96.
For `CCCCNc1nc(N)nc2cn(Cc3nc(CNC)oc3C)nc12` [Compound 165] the same measures were 5.33 and 5.87.
On the same counts, the results for `CCCCNc1nc(N)nc2cn(Cc3ccc(N)cc3OC)nc12` [Compound 166] are 6.20 and 7.03.
For `CCCCNc1nc(N)nc2cn(Cc3ccc(C(C)N)cc3OC)nc12` (stereo not drawn) [Compound 167], the pEC50 on hTLR8 was 6.75; at hTLR7, 6.45.
Take `C=CCN(C)Cc1nc(Cn2cc3nc(N)nc(NCCCC)c3n2)c(C)o1` [Compound 169]: the pEC50 on hTLR8 is 5.39; on hTLR7 it was 5.73.
For `CCCCNc1nc(N)nc2cn(Cc3nc(C)no3)nc12` [Compound 170] the same measures were 5.35 and 5.81.
On the same counts, the results for `CCCCNc1nc(N)nc2cn(Cc3cc(C)no3)nc12` [Compound 171] are 5.60 and 6.29.
Turning to `CCCCNc1nc(N)nc2cn(Cc3nnc(C)o3)nc12` [Compound 172], the pEC50 is 5.40 on hTLR8 and 5.55 on hTLR7.
On the same counts, the results for `CCCCNc1nc(N)nc2cn(Cc3cc(C)nn3C)nc12` [Compound 173] are 5.56 and 6.61.
On the same counts, the results for `CCCCNc1nc(N)nc2cn(Cc3ncnn3C)nc12` [Compound 174] are 5.08 and 5.84.
On the same counts, the results for `CCCCNc1nc(N)nc2cn(Cc3sc(C)nc3C)nc12` [Compound 175] are 5.95 and 6.95.
In the case of `CCCCNc1nc(N)nc2cn(Cc3ccc(CC(C)N)cc3OC)nc12` (stereo not drawn) [Compound 176], the negative-log EC50 (pEC50) at hTLR8 was 6.33; at hTLR7, 6.48.
Consider `CCCCNc1nc(N)nc2cn(Cc3ccnn3CC)nc12` [Compound 177], for which the pEC50 on hTLR8 was 5.55; on hTLR7, 6.17.
On the same counts, the results for `CCCCNc1nc(N)nc2cn(Cc3ccc(CC(C)N)cc3OC)nc12` (stereo not drawn) [Compound 178] are 6.34 and 6.53.
For `CCCCNc1nc(N)nc2cn(Cc3ccccc3OC(F)F)nc12` [Compound 179] the same measures were 5.72 and 6.65.
For `CCCCNc1nc(N)nc2cn(Cc3cncn3C)nc12` [Compound 180] the same measures were 5.20 and 5.94.
In the case of `CCCCNc1nc(N)nc2cn(Cc3scnc3C)nc12` [Compound 181], the negative logarithm of the EC50 (pEC50) at hTLR8 is 5.82; on hTLR7, 6.77.
As to `CCCCNc1nc(N)nc2cn(Cc3cncn3C3CC3)nc12` [Compound 182], the pEC50 on hTLR8 is 5.47; at hTLR7, 6.03.
On the same counts, the results for `C=CCN(C)Cc1cc(OC)c(Cn2cc3nc(N)nc(N[C@@H](C)CCC)c3n2)c(OC)c1` [Compound 183] are 6.42 and 7.51.
On to `CCC[C@H](C)Nc1nc(N)nc2cn(Cc3c(OC)cc(Br)cc3OC)nc12` [Compound 184], for which the figures for the pEC50 at hTLR8 and on hTLR7 were 6.14 and 6.99, respectively.
For `C=CCN(C)Cc1cnc(Cn2cc3nc(N)nc(N[C@H](CO)CCC)c3n2)c(OC)c1` [Compound 185] the same measures were 6.99 and 6.42.
On the same counts, the results for `CCCCNc1nc(N)nc2cn(Cc3ccc(CN(C)C)o3)nc12` [Compound 186] are 6.56 and 6.72.
For `C=CCN(C)Cc1cc(OC)c(Cn2cc3nc(N)nc(N[C@H](C)CCC)c3n2)c(OC)c1` [Compound 187], the negative logarithm of the EC50 (pEC50) on hTLR8 is 7.20; at hTLR7, 7.70.
On the same counts, the results for `CCCCNc1nc(N)nc2cn(Cc3[nH]cnc3C)nc12` [Compound 188] are 4.91 and 5.26.
On the same counts, the results for `CCC[C@@H](C)Nc1nc(N)nc2cn(Cc3c(OC)cc(CNC)cc3OC)nc12` [Compound 189] are 6.54 and 7.05.

Values taken from US20230219962A1, “PYRAZOLO[4,3-d]PYRIMIDINE DERIVATIVES AND METHODS OF USE THEREOF FOR THE TREATMENT OF CELLULAR PROLIFERATIVE DISORDERS” (Merck Sharp & Dohme LLC, priority 2020, published 2023).
